Test results published in patent publication US20110176998A1, “IMAGING AND THERAPY OF VIRUS-ASSOCIATED TUMORS” (THE JOHNS HOPKINS UNIVERSITY, priority 2007, published 2011).
Entries after “also recorded” stand apart in the source; their conditions may differ. Where two headings read alike, the source gives them in different places.

How the values were obtained:
[1] = test system: EBV-TK functional activity in Burkitt's lymphoma cell lines; assay: in vitro [14C]FIAU cell uptake after bortezomib; format: cell-based, Epstein-Barr virus
Description: For in vitro [^14C]FIAU uptake studies, cells were seeded at 5×10^5 cells/mL and incubated with 10 nM bortezomib at 37° C. for 6-12 hrs. They were washed and then incubated with 0.04 μCi/mL [^14C]FIAU at 37° C. for 2, 4, 8, 24, 48, 72 hours. Cells were pelleted by centrifugation and washed with unlabeled FIAU. Radioactivity of the isolated cells and pooled medium with washes were then counted separately by scintillation counting with a Beckman Coulter LS5000TA scintillation counter (Fullerton, Calif.). Total cellular protein was extracted by incubating in lysis buffer (0.05 M Tris, pH 7.6, 0.15 M NaCl, 1% triton-X 100, 2 mM EDTA) and cell debris were removed by centrifugation. The supernatant was collected and the protein concentration was determined with the BCA protein assay kit (Pierce, Rockford, Ill.) according to the manufacturer's instructions. Cell uptake was expressed as the accumulation ratio, that is, the counts per minute per gram (cpm/g) of cells divided by the cpm/g (mL) of medium.

Zta promoter = format: cell-based, Epstein-Barr virus; settings: for known lytic inducer re-identified / hit in epithelial promoter reporter assay: library screen at 10 uM; for Zta promoter luciferase activity / induction of BZLF1 promoter: AGS cells
BZLF1 protein (ZTA) = assay: Western blot / immunoblot for ZTA (BZLF1 protein) in EBV positive cell lines; format: cell-based, Epstein-Barr virus; settings: for BZLF protein expression: SNU719, AKATA, Raji, LCL and Rael cells
Description: To detect expression of the EBV-TK or EBV-ZTA, total cell protein was first extracted by treating cells with lysis buffer (0.05 M Tris, pH 7.6, 0.15 M NaCl, 1% triton-X 100, 2 mM EDTA) containing protease inhibitors for 10 minutes at 4° C. The following reagents were added to 1 mL of lysis buffer: 2 μL leupeptin (5 mg/mL), 1 μL 0.2 M Na3VO4, 1 μL NaF, 1 μL aprotinin (10 mg/ml), 1 μL, pepstatin (2 mM), and 10 μL PMSF (100 mM) for 10 minutes at 4° C. Following centrifugation, the supernatant was collected and stored at −80° C. Protein concentration was determined with the BCA Protein Assay Kit (Pierce, Rockford, Ill.) according to the manufacturer's instructions. A 10 μg aliquot of total cellular protein was fractionated on a 7.5% SDS-polyacrylamide gel. Proteins were transferred to PROTRAN nitrocellulose membrane (Schleicher & Schuell, Keene, N.H.). The membranes were blocked with 5% blotting grade non-fat dry milk (Bio-rad, Hercules, Calif.) in PBS with 0.1% TWEEN-20 (PBS-T) at 4° C. overnight. The membranes were then washed with PBS-T twice followed by incubation with 1/1,000-diluted rabbit anti-TK sera from a rabbit immunized with a synthetic EBV-TK peptide ([…]) or anti-ZTA monoclonal antibody (Argene, North Massapequa, N.Y.) at room temperature for 1 hour. After washing, the membranes were incubated with HRP-conjugated goat anti-rabbit IgG antibodies or HRP-conjugated goat anti-mouse IgG antibodies (Amersham Pharmacia Biotech, Piscataway, N.J.) at a 1/5,000 dilution in PBS-T at room temperature for 1 hour. The membranes were washed twice and proteins were detected with ECL Western Blotting Detection reagents (Amersham Pharmacia Biotech). The membranes were exposed to X-OMAT film (Kodak, Rochester, N.Y.) at room temperature.
For lytic induction studies, cells were seeded at 10^6/ml, and treated with test compounds for 48 hours. Control untreated cells were incubated in parallel.
Cells were washed with PBS twice. Total cellular protein was extracted with lysis buffer. Proteins were electrophoresed in polyacrylamide and then transferred onto a PROTRAN nitrocellulose membrane (Schleicher&Schuell, Keene, N.H.). Blots were probed with primary antibody (Ab) overnight at 4° C. HRP-conjugated secondary Ab was added after washing and detected by an enhanced chemiluminescence system (ECL) (Amersham). The following antibodies were used: anti-ZTA (Argene), anti-f3-actin (Sigma), anti-mouse (Sigma).

[2] = test system: recombinant EBV encoding GFP (BX-1) in AKATA-BX1 cells; assay: GFP whole virus assay in AKATA-BX1 cells; settings: for GFP signal: AKATA-BX1 cells
[3] = test system: CMV promoter driven GFP in Hela cells
[4] = test system: EBV viral DNA copy number; assay: real-time PCR for EBV viral DNA copy number (viral replication); format: cell-based, Epstein-Barr virus; settings: for lytic protein expression or viral replication: B cells or gastric epithelial cells (SNU 719)
Description: Genomic DNA from treated cells were extracted with the QIAamp DNA mini kit (Qiagen, CA) according to the manufacturer's instructions. PCRs were set up in a volume of 50 μL with a TaqMan PCR core reagent kit (Perkin-Elmer Corp., Branchburg, N.J.). Fluorescent probes were custom synthesized by Perkin-Elmer Applied Biosystems. PCR primers were synthesized by Gibco BRL (Frederick, Md.). Each reaction contained 5 μL of 10× buffer A (4 mM MgCl2), amplification primers (300 nM), fluorescent probe (25 nM), dATP, dCTP, and dGTP (200 μM each), dUTP (400 uM), 1.25 U of AmpliTaq Gold, and 0.5 U of AmpErase uracil N-glycosylase. Extracted genomic DNA was used for amplification. DNA amplification was carried out in a 96-well reaction plate in a Perkin-Elmer Applied Biosystems 7700 sequence detector. Each sample was analyzed in duplicate, and multiple negative water blanks were included in each analysis. A calibration curve was run in parallel and in duplicate with each analysis, with DNA extracted from the EBV-positive cell line Namalwa as a standard.
The EBV genome was quantified by real-time PCR with the ICycler system (Biorad, Hercules, Calif.). Template DNA was extracted with a mini blood DNA Kit (Qiagen, Valencia, Calif.). […]. A calibration curve was run in parallel and in duplicate with each analysis, using DNA extracted from the diploid EBV-positive cell line Namalwa containing two integrated viral genomes per cell as a standard. Amplification data were collected with an MyiQ single color real-time PCR Detector (Biorad) and analyzed with the MyiQ software developed by Biorad.

EBV-TK = assay: immunoblot for EBV-TK expression; format: cell-based, Epstein-Barr virus; settings: Rael cells; immunoblot
Description: To detect expression of the EBV-TK or EBV-ZTA, total cell protein was first extracted by treating cells with lysis buffer (0.05 M Tris, pH 7.6, 0.15 M NaCl, 1% triton-X 100, 2 mM EDTA) containing protease inhibitors for 10 minutes at 4° C. The following reagents were added to 1 mL of lysis buffer: 2 μL leupeptin (5 mg/mL), 1 μL 0.2 M Na3VO4, 1 μL NaF, 1 μL aprotinin (10 mg/ml), 1 μL, pepstatin (2 mM), and 10 μL PMSF (100 mM) for 10 minutes at 4° C. Following centrifugation, the supernatant was collected and stored at −80° C. Protein concentration was determined with the BCA Protein Assay Kit (Pierce, Rockford, Ill.) according to the manufacturer's instructions. A 10 μg aliquot of total cellular protein was fractionated on a 7.5% SDS-polyacrylamide gel. Proteins were transferred to PROTRAN nitrocellulose membrane (Schleicher & Schuell, Keene, N.H.). The membranes were blocked with 5% blotting grade non-fat dry milk (Bio-rad, Hercules, Calif.) in PBS with 0.1% TWEEN-20 (PBS-T) at 4° C. overnight. […] The membranes were washed twice and proteins were detected with ECL Western Blotting Detection reagents (Amersham Pharmacia Biotech). […]

[5] = test system: EBV(+) Burkitt's lymphoma (Rael); assay: tumor growth, EBV(+) Burkitt's lymphoma (Rael) xenografts; format: in vivo, SCID mice; settings: bortezomib without [131I]FIAU
Description: Therefore, an evaluation of a therapeutic isotope was carried out. As described above, SCID mice engrafted with EBV Burkitt's lymphoma xenografts received either buffer or bortezomib followed the next day by treatment with [^131I]FIAU or no treatment. […] Thus, bortezomib allowed targeting of [^131I]FIAU with therapeutic effect. Other proteasome inhibitors are also likely to be active. Several are in clinical trial.
Biostatistics. Linear regression and curve fitting were undertaken carried using GraphPad Prism software version 5.00 for Windows, GraphPad Software, San Diego Calif. USA, www.graphpad.com.

EBV(+) Akata cells = assay: entry of EBV(+) Akata cells into the lytic cycle; settings: 20 nM, 48 hours
[6] = administered to patients for imaging; cited from earlier work

O=c1[nH][14c](=O)n([C@@H]2O[C@H](CO)[C@@H](O)[C@@H]2F)cc1I [[^14C]FIAU, [2-^14C]2′-Fluoro-2′-deoxy-β-D-5-iodouracil-arabinofuranoside]
accumulation of [14C]FIAU ([1]; EBV(+) Akata and EBV(+) Rael cells following treatment with bortezomib): increased | accumulation of [14C]FIAU ([1]; EBV(−) Akata cells following treatment with bortezomib): not

CC(=O)O[C@H]1C(=O)[C@@]2(C)[C@H]([C@H](OC(=O)c3ccccc3)[C@]3(O)C[C@H](OC(=O)[C@H](O)[C@@H](NC(=O)c4ccccc4)c4ccccc4)C(C)=C1C3(C)C)[C@]1(OC(C)=O)CO[C@@H]1C[C@@H]2O [Taxol]
known lytic inducer re-identified / hit in epithelial promoter reporter assay (Zta promoter): verified

CC(C)[C@H](CO)Nc1nc(Nc2cccc(Cl)c2)c2ncn(C(C)C)c2n1 [Purvalanol A]
inhibition of EBV immediate early gene ZTA expression (BZLF1 protein (ZTA); AKATA-BX1, anti-IgG induction): inhibited | inhibition of GFP signal after lytic induction ([2]; AKATA-BX1 cells induced with anti-IgG): specifically inhibited

Nc1ncn([C@H]2C[C@H](O)[C@@H](CO)O2)c(=O)n1 [5′-azadeoxycytidine, 5-Aza-2′-deoxycytidine]
Zta promoter luciferase activity (Zta promoter): did not activate; also recorded: not activated | GFP signal [2]: induced | GFP signal in control cell line [3]: not activated

Cc1oncc1C(=O)Nc1ccc(C(F)(F)F)cc1 [Leflunomide, N-(4′-trifluoromethylphenyl)-5-methylisoxazole-4-carboxamide]
BZLF protein expression (BZLF1 protein (ZTA)): did not induce | lytic protein expression or viral replication [4]: don't induce

CCCC(=O)O [butyrate]
Zta promoter luciferase activity (Zta promoter): activated

O=c1[nH]cc(F)c(=O)[nH]1 [5-FU]
known lytic inducer re-identified / hit in epithelial promoter reporter assay (Zta promoter): verified

CN(Cc1cnc2nc(N)nc(N)c2n1)c1ccc(C(=O)N[C@@H](CCC(=O)O)C(=O)O)cc1 [Methotrexate]
known lytic inducer re-identified / hit in epithelial promoter reporter assay (Zta promoter): verified

COc1ccc(C=CC(=O)Nc2ccccc2C(=O)O)cc1OC [Tranilast, N-(3,4-dimethoxycinnamoyl)anthranilic acid]
BZLF protein expression (BZLF1 protein (ZTA)): did not induce | lytic protein expression or viral replication [4]: don't induce

CC(C)C[C@H](NC(=O)[C@H](Cc1ccccc1)NC(=O)c1cnccn1)B(O)O [Bortezomib]
Zta promoter luciferase activity (Zta promoter): increases in a bortezomib dose-dependent manner | induction of BZLF1 promoter (Zta promoter; 10 nM): induced | known lytic inducer re-identified / hit in epithelial promoter reporter assay (Zta promoter): most prominent hit | EC50 for inducing lytic infection (Zta promoter; luciferase assay): nanomolar scale | ZTA expression (BZLF1 protein (ZTA); Rael cells): induced | EBV-TK expression (EBV-TK): induced | increase of EBV viral DNA copy number ([4]; Rael cells, 20 nM for 8 hours, DNA collected after 48 hours): 20 fold | viral copy number ([4]; real time DNA PCR, Rael): increased | tumor growth [5]: slowed tumor growth | GFP signal [2]: dose dependent | GFP signal ([2]; 10 nM): induced GFP signal | EC50 for inducing lytic infection ([2]; GFP assay): nanomolar scale | known lytic inducer re-identified / hit in lymphoma cell line/whole virus assay ([2]; library screen at 10 uM): most prominent hit | cells entered the lytic cycle (EBV(+) Akata cells): 67%

Arginine butyrate
known lytic inducer re-identified / hit in epithelial promoter reporter assay (Zta promoter): missed | known lytic inducer re-identified / hit in lymphoma cell line/whole virus assay ([2]; library screen at 10 uM): missed

N.N.[Cl][Pt][Cl] [cis-platinum]
known lytic inducer re-identified / hit in epithelial promoter reporter assay (Zta promoter): verified

CC[C@H](C)C(=O)O[C@H]1C[C@@H](C)C=C2C=C[C@H](C)[C@H](CC[C@@H]3C[C@@H](O)CC(=O)O3)[C@H]21 [lovastatin]
suppression hits in GFP whole virus assay ([2]; library screen at 10 uM, picked after day 10): suppression hits

CCCCCCCCCCCCCC(=O)O[C@@H]1[C@@H](C)[C@@]2(O)[C@@H](C=C(CO)C[C@]3(O)C(=O)C(C)=C[C@@H]23)[C@@H]2C(C)(C)[C@]12OC(C)=O [TPA, phorbol 12-tetradecanoate 13-acetate]
Zta promoter luciferase activity (Zta promoter): activated | GFP signal in control cell line [3]: not activated

CCCC(=O)[O-].[Na+] [Sodium butyrate]
known lytic inducer re-identified / hit in epithelial promoter reporter assay (Zta promoter): missed | known lytic inducer re-identified / hit in lymphoma cell line/whole virus assay ([2]; library screen at 10 uM): missed

CC(C(=O)O)c1ccc(N2Cc3ccccc3C2=O)cc1 (stereo not shown) [Indoprofen]
induction of BZLF1 promoter (Zta promoter; 10 μM): can induce | ZTA expression (BZLF1 protein (ZTA); SNU719 cells, high dose): induced | EBV viral replication ([4]; SNU719 cells): not viral replication; also recorded: did not induce

CCCC(CCC)C(=O)O [valproate]
Zta promoter luciferase activity (Zta promoter): activated | Zta promoter luciferase activity (Zta promoter; listed as valproic acid): increased expression of luciferase in a dose-dependent manner

[Cl][Co][Cl] [Cobalt chloride]
known lytic inducer re-identified / hit in epithelial promoter reporter assay (Zta promoter): missed | known lytic inducer re-identified / hit in lymphoma cell line/whole virus assay ([2]; library screen at 10 uM): missed

COc1cccc2c1C(=O)c1c(O)c3c(c(O)c1C2=O)C[C@@](O)(C(=O)CO)C[C@@H]3O[C@H]1C[C@H](N)[C@H](O)[C@H](C)O1 [Doxorubicin]
known lytic inducer re-identified / hit in epithelial promoter reporter assay (Zta promoter): verified | known lytic inducer re-identified / hit in lymphoma cell line/whole virus assay ([2]; library screen at 10 uM): verified

O=c1[nH]c(=O)n([C@@H]2O[C@H](CO)[C@@H](O)[C@@H]2F)cc1[125I] [[^124I]FIAU, 2′-fluoro-2′deoxy-1-beta-D-arabinofuranosyl-5-iodo-uracil]
effect on hepatic function [6]: without any adverse effect on hepatic function

CCCCCCCCCCCCCC(=O)O[C@@H]1[C@@H](C)[C@@]2(O)[C@@H](C=C(CO)C[C@]3(O)C(=O)C(C)=C[C@@H]23)[C@@H]2C(C)(C)[C@]12OC(C)=O [PMA]
known lytic inducer re-identified / hit in epithelial promoter reporter assay (Zta promoter): verified | known lytic inducer re-identified / hit in lymphoma cell line/whole virus assay ([2]; library screen at 10 uM): verified
